Results on 11 molecules are retold here after ChEMBL document CHEMBL1201862, “PubChem BioAssay data set” (2004).

Test in all cases: NCI-60 cell line screen, 48 h
In assay [1] the test system is A498.
Assay [2] concerns A549.
Assay [3] deals with ACHN.
For assay [4], the system named is CAKI-1.
Assay [5] concerns CCRF-CEM.
The subject of assay [6] is EKVX.
Assay [7] has as its system K562.
Assay [8] concerns LOX IMVI.
Assay [9] relates to M14.
The test system of assay [10] is MOLT-4.
Assay [11] concerns NCI-H460.
The subject of assay [12] is OVCAR-8.
Assay [13] deals with SK-OV-3.
In assay [14] the test system is SW-620.
The subject of assay [15] is T47D.
Assay [16] has as its system U-251.
The test system of assay [17] is NCI-H226.
The test system of assay [18] is SNB-75.
Assay [19] has as its system TK-10.
In assay [20] the test system is MDA-MB-231.

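96-well plates; 48 h exposure; 5 concentrations. Endpoints by linear interpolation between flanking doses. Not reached: highest tested concentration assigned. The concentration for 50% growth inhibition is given as GI50.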 Calls of active or inactive are those of the source. Rule as the data show it: active = GI50 up to about 1.1 µM and inactive = higher.

On to `CN(C)C(=O)Oc1ccc(C(=S)Nc2ccccc2)cc1`, for which the GI50 in assay [1] was > 100 µM (inactive); in [2] it was 66.2 µM (inactive); in [3] it was > 100 µM (inactive); in [4] it was > 100 µM (inactive); in [5], 26.6 µM (inactive); in [6] it was 45.9 µM (inactive). Besides, the GI50 in assay [7] was 24.8 µM (inactive); in [8] it was 60.1 µM (inactive); in assay [9], 41.2 µM (inactive); in assay [10] it was 18.3 µM (inactive); in assay [11] it was 40.5 µM (inactive); in [12], 25.6 µM (inactive). Further, the GI50 in [13] was > 100 µM (inactive); in [14], > 100 µM (inactive); in [15] it was 53.6 µM (inactive); in assay [16] it was > 100 µM (inactive).
Consider `O=C(O)c1ccc(Nc2nc3ccc(C(F)(F)F)cc3nc2-c2ccccc2)cc1`, for which the GI50 was 27 µM (inactive) in assay [2]; 32.9 µM (inactive) in [3]; 44.6 µM (inactive) in assay [4]; 36.1 µM (inactive) in assay [5]; 29 µM (inactive) in assay [6]; 45.2 µM (inactive) in assay [7]. The GI50 in [8] was 40.4 µM (inactive); in assay [9] it was 24 µM (inactive); in assay [10] it was 30 µM (inactive); in assay [17], 46.1 µM (inactive); in assay [11], 29.6 µM (inactive); in assay [12], 30.9 µM (inactive). Further, the GI50 was 40 µM (inactive) in assay [18]; 45.7 µM (inactive) in assay [14]; 15.6 µM (inactive) in assay [15]; 23.1 µM (inactive) in [19]; 31.4 µM (inactive) in assay [16].
In the case of `CCOC(=O)C(=Cc1[nH]c2ccccc2c1-c1c[nH]c2ccccc12)C(=O)OCC`, the GI50 in [1] is 14.5 µM (inactive); in assay [2] it was 16.6 µM (inactive); in [3], 12.2 µM (inactive); in [4], 17.1 µM (inactive); in assay [6] it was 16.1 µM (inactive); in [7], 4.12 µM (inactive). The GI50 in [8] is 12.7 µM (inactive); in [9], 10 µM (inactive); in assay [20] it was 16.9 µM (inactive); in [10], 0.923 µM (active); in assay [17], 14 µM (inactive); in assay [11] it was 12.6 µM (inactive). Also, the GI50 is 11.3 µM (inactive) in assay [12]; 20.3 µM (inactive) in assay [13]; 12.9 µM (inactive) in assay [18]; 12.7 µM (inactive) in assay [19]; 11.7 µM (inactive) in assay [16].
Consider `COC[C@H](Cc1ccccc1)/N=C/c1ccccc1`, for which the GI50 in [2], in assay [3], in [4], in assay [5], in assay [6] and in assay [7] was > 100 µM (inactive) each time. Moreover, the GI50 in assay [8], in assay [9], in assay [10], in assay [11], in assay [12] and in assay [13] was > 100 µM (inactive) throughout. Besides, the GI50 in assay [18], in [14], in assay [15], in assay [19] and in assay [16] was > 100 µM (inactive) in each case.
In the case of `O=[N+]([O-])c1cc(Cl)ccc1S(=O)(=O)c1cc(Cl)cc2c1NCCC2`, the GI50 was > 100 µM (inactive) in [1]; 52 µM (inactive) in assay [2]; 40.9 µM (inactive) in assay [3]; 66.7 µM (inactive) in [4]; 26.4 µM (inactive) in assay [5]; 85.7 µM (inactive) in assay [6]. Besides, the GI50 in assay [7] is 24.5 µM (inactive); in assay [8], 58.5 µM (inactive); in [9] it was 53 µM (inactive); in assay [20], > 100 µM (inactive); in assay [10], 27.6 µM (inactive); in [17], 39.3 µM (inactive). The GI50 in assay [11] is 55.1 µM (inactive); in [12], 56.6 µM (inactive); in assay [13], > 100 µM (inactive); in assay [18] it was 18.4 µM (inactive); in assay [14], > 100 µM (inactive); in assay [19], > 100 µM (inactive).
For the molecule `Cc1ccc([N+](=O)[O-])cc1NC(=O)C(=O)C1CCC2=C(Sc3ccccc3N2)C1=O` (stereo unspecified), the GI50 is > 100 µM (inactive) in assay [2]; > 100 µM (inactive) in assay [3]; 52 µM (inactive) in assay [4]; 63.4 µM (inactive) in [5]; > 100 µM (inactive) in assay [6]; > 100 µM (inactive) in [8]. Further, the GI50 in assay [9] is > 100 µM (inactive); in assay [20] it was > 100 µM (inactive); in [10], 43.7 µM (inactive); in [17], 58.7 µM (inactive); in assay [11], > 100 µM (inactive); in assay [12] it was 66.8 µM (inactive). Further, the GI50 in assay [13], in [18], in assay [14], in [19] and in assay [16] was > 100 µM (inactive) each time.
With `O=C([O-])C1([n+]2c(-c3ccccc3)cc(-c3ccccc3)cc2-c2ccccc2)CC1`, the GI50 in [1] is > 100 µM (inactive); in assay [2] it was > 100 µM (inactive); in [3], > 100 µM (inactive); in [5], 48.2 µM (inactive); in assay [6] it was 22.7 µM (inactive); in [7], 27.5 µM (inactive). For the same molecule, the GI50 in assay [8] is 82.6 µM (inactive); in assay [9] it was 43.6 µM (inactive); in [10] it was 65.6 µM (inactive); in [17], > 100 µM (inactive); in [11] it was 74.5 µM (inactive); in assay [12], > 100 µM (inactive). The GI50 in assay [18] is 46.8 µM (inactive); in assay [14], > 100 µM (inactive); in assay [15], 16 µM (inactive); in assay [19], > 100 µM (inactive); in [16], 28.7 µM (inactive).
As for `Cn1c(=O)n2n(c1=O)C(S(=O)(=O)c1ccccc1)C2` (stereo unspecified), the GI50 in [2], in assay [3], in [4], in [5], in [6] and in assay [7] was > 100 µM (inactive) each time. For the same molecule, the GI50 in assay [8], in assay [9], in assay [20], in [10], in [11] and in assay [12] was > 100 µM (inactive) throughout. Besides, the GI50 in [13], in assay [18], in [14], in assay [19] and in assay [16] was > 100 µM (inactive) throughout.
In the case of `COc1ccc(/C=C2\CCC(C)C3=C2N=c2s/c(=C/c4cccc(Br)c4)c(=O)n2C3c2ccc(OC)c(OC)c2)cc1OC` (stereo unspecified), the GI50 in assay [1], in assay [2], in assay [3], in assay [4], in [5] and in assay [6] was > 100 µM (inactive) in each case. In addition, the GI50 in assay [7], in [8], in [9], in assay [20], in [10] and in [12] was > 100 µM (inactive) each time. For the same molecule, the GI50 in [13], in assay [14], in assay [19] and in assay [16] was > 100 µM (inactive) in each case.
For `CCC1(OC(C)=O)C(=O)OCc2c1cc1n(c2=O)Cc2cc3ccccc3nc2-1` (stereo unspecified), the GI50 in [1] is 2.55 µM (inactive); in [2] it was 1.16 µM (inactive); in assay [3] it was 0.455 µM (active); in assay [4] it was 1.07 µM (active); in assay [5], 0.163 µM (active); in [6], 12.8 µM (inactive). Moreover, the GI50 is 3.1 µM (inactive) in assay [7]; 1.01 µM (active) in assay [8]; 0.948 µM (active) in [9]; 0.264 µM (active) in [10]; 0.869 µM (active) in [17]; 0.262 µM (active) in [11]. Besides, the GI50 is 2.45 µM (inactive) in [12]; 2.28 µM (inactive) in [13]; 1.48 µM (inactive) in assay [18]; 5.83 µM (inactive) in [14]; > 100 µM (inactive) in assay [19]; 0.289 µM (active) in assay [16].
Consider `Cc1cc(-c2nc3ccccc3s2)ccc1NS(=O)(=O)O`, for which the GI50 in [1] was 65.9 µM (inactive); in [2], > 5.82 µM (inactive); in [3], > 7.78 µM (inactive); in assay [4], > 7.21 µM (inactive); in assay [5], > 4.65 µM (inactive); in assay [7] it was 4.65 µM (inactive). Besides, the GI50 is > 4.65 µM (inactive) in assay [8]; > 29.5 µM (inactive) in assay [9]; > 24.1 µM (inactive) in assay [20]; 4.73 µM (inactive) in assay [10]; > 39.9 µM (inactive) in assay [17]; > 4.85 µM (inactive) in assay [12]. Also, the GI50 in [13] is > 33.5 µM (inactive); in assay [18], > 67 µM (inactive); in [14], > 4.65 µM (inactive); in [19] it was > 26.1 µM (inactive).
